Results: patent US20060094059A1, “Methods for identifying new drug leads and new therapeutic uses for known drugs” (Odyssey Thera, Inc., priority 2004, published 2006)

How the values were obtained:
PIN1:JUN complexes = test: Protein-fragment complementation assay PIN1:JUN; format: cell-based, human
From the text: (§1) To construct dynamic assays for protein-protein complexes, we used a protein-fragment complementation assay strategy (PCAs) in intact human cells. (A variety of other suitable assays, and reporter options, are described in detail below.) The principle of PCA is that complementary polypeptide fragments (F[1] and F[2]) of a reporter protein or enzyme will fold into an active form only if fused to two proteins which interact and bring the complementary fragments of the reporter protein into proximity. Reconstitution of the fragments of the reporter protein generates a fluorescent signal that can be quantified in intact cells, and the amount of the signal is proportional to the amount of the protein-protein complex used in constructing the assay. Given a suitable reporter type, the subcellular location of the complex can also be measured.
(§2) Reporter fragments for PCA were generated by oligonucleotide synthesis (Blue Heron Biotechnology, Bothell, Wash.), starting with the sequence of yellow fluorescent protein (YFP). First, oligonucleotides coding for polypeptide fragments YFP[1]and YFP[2] […] Next, PCR mutagenesis was used to generate the mutant fragments IFP[1] and IFP[2]. The IFP[1] fragment corresponds to YFP[1]-(F46L, F64L, M153T) and the IFP[2] fragment corresponds to YFP[2]-(V163A, S175G). […]

HSP90:Eef2k = test: Protein-fragment complementation assay Hsp90:Eef2k; format: cell-based, human
From the text: as §1
Reporter fragments for PCA were generated by oligonucleotide synthesis (Blue Heron Biotechnology, Bothell, Wash.), starting with the sequence of yellow fluorescent protein (YFP). First, oligonucleotides coding for polypeptide fragments YFP[1]and YFP[2] […] Next, PCR mutagenesis was used to generate the mutant fragments IFP[1] and IFP[2]. The IFP[1] fragment corresponds to YFP[1]-(F46L, F64L, M153T) and the IFP[2] fragment corresponds to YFP[2]-(V163A, S175G). […] The YFP[1], YFP[2], IFP[1] and IFP[2] fragments were amplified by PCR to incorporate restriction sites and a linker sequence, described below, in configurations that would allow fusion of a gene of interest to either the 5′- or 3′-end of each reporter fragment. The reporter-linker fragment cassettes were subcloned into a mammalian expression vector (pcDNA3.1Z, Invitrogen) that had been modified to incorporate the replication origin (oriP) of the Epstein Barr virus (EBV). […] Additionally, these vectors still retain the SV40 origin, allowing for episomal expression in cell lines expressing the SV40 large T antigen (e.g. HEK293T, Jurkat or COS). […]

HSP90:CDC37 = test: Protein-fragment complementation assay Hsp90:CDC37; format: cell-based, human
From the text: as §1, §2

[1] = tested on: non-small cell lung carcinoma (A549) cells; test: MTT proliferation assay, NSCLC; format: cell-based, Human; conditions: Homo sapiens, Tumor Cell NSCLC (A549), 120 hours, read-out: Anti-proliferative IC-50
Description: (§3) Cells were maintained in various media as follows: A549, LoVo and PC-3 (Ham's F12K medium with 2 mM L-glutamine and 1.5 g/L sodium bicarbonate), MIA PaCa-2 (Dulbecco's modified Eagle's medium with 4 mM L-glutamine and 4.5 g/L glucose), U87-MG (MEM+Earle's BSS). Medium for each cell line was supplemented with 10% FBS and […] Penecillin/Streptomycin. All cells were grown in incubators set at 37° C., 5% CO2. Thiazolyl Blue Tetrazolium Bromide (MTT) based proliferation assays were performed to assess the anti-proliferative activities of the compounds on these cells. Cells were seeded in 96 well plates at a density of 750 cells/well 24 hours prior to compound treatment. The cells were incubated with varying concentrations of compounds for 120 hours. […] Drug treatment was performed in 5 replicate wells. Background absorbance was established by wells containing medium but no cells. Vehicle (DMSO) only was used as control. MTT (Sigma-Aldrich, St. Louis, Mo.) was added to each well at a final concentration of 0.5 mg/ml. Following a 2 hour incubation at 37° C., medium in the wells was replaced with 0.15 ml DMSO. The plates were agitated for 15 min using a microtiter plate shaker.

[2] = tested on: colon adenocarcinoma (LoVo) cells; test: MTT proliferation assay, colon; format: cell-based, Human; conditions: Homo sapiens, Tumor Cell Colon (LoVo), 120 hours, read-out: Anti-proliferative IC-50
Description: as §3

[3] = tested on: glioblastoma (U-87 MG) cells; test: MTT proliferation assay, glioblastoma; format: cell-based; conditions: Homo sapiens, Tumor Cell Glioblastoma (U-87 MG), 120 hours, read-out: Anti-proliferative IC-50
Description: as §3

MAX:MYC = test: Protein-fragment complementation assay MAX:MYC; format: cell-based, human; conditions: hit in MYC/MAX assay; drugs screened at 10 micromolar
From the text: as §1, §2

Smad3:HDAC = test: Protein-fragment complementation assay Smad3:HDAC; format: cell-based, human; conditions: hit in HDAC/SMAD3 assay; drugs screened at 10 micromolar
From the text: as §1, §2

[4] = tested on: pancreatic carcinoma (MIA PaCa-2) cells; test: MTT proliferation assay, pancreatic; format: cell-based, Human; conditions: Homo sapiens, Tumor Cell Pancreatic (MIA PaCa-2), 120 hours, read-out: Anti-proliferative IC-50
Description: as §3

`O=C(Nc1ccc([N+](=O)[O-])cc1Cl)c1cc(Cl)ccc1O` [Niclosamide] was tested. Which “level of PIN1:JUN complexes (intensity of the fluorescence)” value (PIN1:JUN complexes; FIG. 3A) did it give?
Its value is “decrease in the level”.

And the Assay activity (PIN1:JUN complexes; hit in PIN1/JUN assay, drugs screened at 10 micromolar)?
The Assay activity was “PIN1/JUN,”.

And the “level of HSP90:Eef2k complexes (intensity of the fluorescence)” value (HSP90:Eef2k; FIG. 3D)?
Its value is “decrease in the level”.

And the Assay activity (HSP90:Eef2k; hit in HSP90/Eef2k assay, drugs screened at 10 micromolar)?
The Assay activity was “HSP90/Eef2k,”.

And the “level of HSP90:CDC37 complexes (intensity of the fluorescence)” value (HSP90:CDC37; FIG. 3D)?
Its value is “decrease in the level”.

What about the Assay activity (HSP90:CDC37; hit in HSP90/CDC37 assay, drugs screened at 10 micromolar) of the same compound?
Its Assay activity is “HSP90/CDC37,”.

And the IC50 [1]?
The IC50 was 660 nM.

And the IC50 [2]?
The IC50 was 450 nM.

And the IC50 [3]?
The IC50 was 810 nM.

And the Assay activity (MAX:MYC)?
The Assay activity was “MYC/MAX”.

What about the Assay activity (Smad3:HDAC) of the same compound?
The Assay activity was “HDAC/SMAD3,”.

What about the IC50 [4] of the same compound?
The IC50 was 590 nM.
